Kd data for 35 compounds are collected here from ChEMBL document CHEMBL5518179, “Resveratrol-derived inhibitors of the E3 ubiquitin ligase PELI1 inhibit the metastasis of triple-negative breast cancer” (Eur J Med Chem, 2024).

In this test the target is T1, E3 ubiquitin-protein ligase pellino homolog 1 (Homo sapiens, UniProt Q96FA3).
T1 sequence (Q96FA3 whole entry): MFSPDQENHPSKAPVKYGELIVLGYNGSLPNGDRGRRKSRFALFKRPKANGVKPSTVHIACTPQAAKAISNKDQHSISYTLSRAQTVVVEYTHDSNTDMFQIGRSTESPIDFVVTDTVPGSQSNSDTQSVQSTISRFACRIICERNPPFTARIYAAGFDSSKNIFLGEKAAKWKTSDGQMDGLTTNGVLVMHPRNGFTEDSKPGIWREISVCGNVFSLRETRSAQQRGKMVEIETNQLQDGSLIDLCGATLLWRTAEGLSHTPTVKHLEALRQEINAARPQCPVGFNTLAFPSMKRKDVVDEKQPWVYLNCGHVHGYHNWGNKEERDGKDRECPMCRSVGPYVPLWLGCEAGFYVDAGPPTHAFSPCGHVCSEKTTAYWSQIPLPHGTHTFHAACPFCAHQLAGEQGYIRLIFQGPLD
Put plainly: Binding affinity to PELI1 FHA domain (unknown origin) expressed in Escherichia coli BL21(DE3) competent cell measured after 1 min by fluorescence quenching assay.

Consider `Oc1ccc(-c2ccc(/C=C/c3cc(O)cc(O)c3)cc2)cc1`, for which the Kd entry is “Not Active”.
Consider `O=C(/C=C/c1ccc(O)c(/C=C/c2cc(O)cc(O)c2)c1)N1CCCCC1`, for which the dissociation constant (Kd) (read-out: Kd) is 26.9 µM.
Consider `CNC(=O)/C=C/c1cc(/C=C/c2cc(O)cc(O)c2)ccc1O`, for which the Kd (read-out: Kd) was determined as 42.3 µM.
On the same count and under the same terms, the result for `NC(=O)/C=C/c1ccc(O)c(/C=C/c2cc(O)cc(O)c2)c1` reads 55.7 µM.
Still for that read-out and setting: in the case of `CCCNC(=O)/C=C/c1cc(/C=C/c2cc(O)cc(O)c2)ccc1O` it was 44.4 µM; in that of `COc1cc(C=O)ccc1O` [VANILLIN], 228 µM.
For `C/C=C/C(=O)Nc1ccc(/C=C/c2cc(O)cc(O)c2)cc1`, the Kd result is “Not Active”.
On to `O=C(/C=C/c1ccccc1)Nc1cc(/C=C/c2cc(O)cc(O)c2)ccc1O`, for which the Kd (read-out: Kd) is 124 µM.
As for `O=c1ccc2ccc(O)c(O)c2o1` [DAPHNETIN], the Kd (read-out: Kd) was found to be 336 µM.
As to `CNC(=O)/C=C/c1ccc(O)c(/C=C/c2cc(O)cc(O)c2)c1`, the Kd (read-out: Kd) came to 59.9 µM.
Still for that read-out and setting: the result for `CNC(=O)/C=C/c1ccccc1` reads 212 µM; that for `NC(=O)/C=C/c1cc(O)ccc1/C=C/c1cc(O)cc(O)c1`, 40.1 µM.
As for `CN(C)C(=O)/C=C/c1ccc(/C=C/c2cc(O)cc(O)c2)cc1`, the Kd entry is “Not Active”.
Still for that read-out and setting: in the case of `CNC(=O)/C=C/c1ccc(/C=C/c2cc(O)cc(O)c2)cc1` it was “Not Active”.
Turning to `O=C(/C=C/c1cc(O)ccc1/C=C/c1cc(O)cc(O)c1)N1CCCCC1`, for the setting “read-out: Kd”, the Kd was found to be 96.3 µM.
Still for that read-out and setting: in the case of `CCCNC(=O)/C=C/c1cc(O)ccc1/C=C/c1cc(O)cc(O)c1` it was 70.1 µM; in that of `CN(C)C(=O)/C=C/c1cc(O)ccc1/C=C/c1cc(O)cc(O)c1`, 104 µM.
As to `O=C(/C=C/c1ccccc1)Nc1cc(O)ccc1/C=C/c1cc(O)cc(O)c1`, for the setting “read-out: Kd”, the Kd was found to be 51.5 µM.
The same measure, in the same setting: the result for `O=C(/C=C/c1cc(/C=C/c2cc(O)cc(O)c2)ccc1O)N1CCCCC1` reads 37.9 µM.
As for `Oc1cc(O)cc(/C=C/c2ccc(-c3cccc(O)c3)cc2)c1`, the Kd result is “Not Active”.
Same read-out and setting: the result for `NC(=O)/C=C/c1ccc(/C=C/c2cc(O)cc(O)c2)cc1` reads “Not Active”; that for `Oc1cc(O)cc(/C=C/c2ccc(-c3ccccc3)cc2)c1`, “Not Active”.
On the same count and under the same terms, in the case of `Oc1cc(O)cc(/C=C/c2ccc(-c3ccsc3)cc2)c1` it was “Not Active”.
On to `O=C(/C=C/c1ccccc1)Nc1ccc(O)c(/C=C/c2cc(O)cc(O)c2)c1`, for which the Kd result is given as “Not Active”.
As to `O=[N+]([O-])c1cccc(-c2ccc(/C=C/c3cc(O)cc(O)c3)cc2)c1`, the Kd entry is “Not Active”.
On to `C/C=C/C(=O)Nc1ccc(O)c(/C=C/c2cc(O)cc(O)c2)c1`, for which the equilibrium dissociation constant (Kd) (read-out: Kd) amounted to 64.3 µM.
In the case of `Oc1ccc(/C=C/c2cc(O)cc(O)c2)cc1` [RESVERATROL], the Kd (read-out: Kd) came to 125 µM.
For the compound `C/C=C/C(=O)Nc1cc(O)ccc1/C=C/c1cc(O)cc(O)c1`, the dissociation constant Kd (read-out: Kd) came to 86.9 µM.
On the same count and under the same terms, in the case of `C/C=C/C(=O)Nc1cc(/C=C/c2cc(O)cc(O)c2)ccc1O` it was 126 µM.
For `Oc1cc(O)cc(/C=C/c2ccc(-c3ccoc3)cc2)c1`, the Kd entry is “Not Active”.
For `O=C(/C=C/c1ccc(/C=C/c2cc(O)cc(O)c2)cc1)N1CCCCC1`, the Kd result is “Not Active”.
With `O=C(Nc1ccccc1)c1cccnc1` [NICOTINANILIDE], the dissociation constant Kd (read-out: Kd) worked out at 336 µM.
Take `CCCNC(=O)/C=C/c1ccc(/C=C/c2cc(O)cc(O)c2)cc1`: the dissociation constant Kd result is “Not Active”.
For the compound `CNC(=O)/C=C/c1cc(O)ccc1/C=C/c1cc(O)cc(O)c1`, the Kd (read-out: Kd) stood at 39.3 µM.
Regarding `O=C(/C=C/c1ccccc1)Nc1ccc(/C=C/c2cc(O)cc(O)c2)cc1`, the Kd result is “Not Active”.
